The source of these data is patent publication US10457667B2, “Indolin-2-one derivatives” (Hoffmann-La Roche Inc., priority 2015, dated 2019).

SMILES strings stand for the structures.

The experiment deals with T1, mouse ENT-1 transporter (Mus musculus, UniProt Q9JIM1).
T1 construct: expressed in transfected cells
T1 sequence (Q9JIM1 1-460): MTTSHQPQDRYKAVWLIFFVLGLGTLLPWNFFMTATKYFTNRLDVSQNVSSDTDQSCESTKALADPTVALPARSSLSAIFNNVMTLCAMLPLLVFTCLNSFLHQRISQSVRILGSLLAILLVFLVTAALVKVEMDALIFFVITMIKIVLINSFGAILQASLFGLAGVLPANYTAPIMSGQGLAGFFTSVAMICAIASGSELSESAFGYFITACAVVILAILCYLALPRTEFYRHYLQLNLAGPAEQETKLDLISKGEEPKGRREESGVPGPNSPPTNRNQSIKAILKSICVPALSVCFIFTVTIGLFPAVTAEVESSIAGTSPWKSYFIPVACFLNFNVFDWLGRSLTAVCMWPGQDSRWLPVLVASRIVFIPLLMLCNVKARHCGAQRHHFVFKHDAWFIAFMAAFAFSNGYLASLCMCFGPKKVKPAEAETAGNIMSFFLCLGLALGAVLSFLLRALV
As to the kind of experiment: ENT1 adenosine uptake inhibition ([3H]-adenosine transport activity). The format is cell-based. The conditions noted are these: stable cells expressing mouse ENT-1; [2,8-3H]-adenosine 6 nM, 20 min. As to the method: To measure adenosine transport activity of ENT-1 mammalian cells, stable cells expressing the mouse ENT-1 transporter were plated on day 1 in 96-well culture plates at the density of 60,000 cells/well, in complete DMEM/F12 medium supplemented with glutamax, 10% FBS and 10 μg/ml puromycin. On day 2, the medium was aspirated and the cells were washed twice with uptake buffer (10 mM Hepes-Tris, pH 7.4 containing 150 mM NaCl, 1 mM CaCl2, 2.5 mM KCl, 2.5 mM MgSO4, 10 mM D-glucose) (UB). For inhibition experiments, cells were then incubated at RT with various concentrations of compounds with 1% DMSO final. Non-specific uptake was defined in the presence of 10 μM S-(4-Nitrobenzyl)-6-thioinosine (NBTI, Sigma Cat #N2255).
A solution containing [2,8-^3H]-adenosine 6 nM (40 Ci/mmol, American Radiolabeled chemicals Inc, Cat #ART 0287A) was then immediately added to the wells. The plates were then incubated for 20 min with gentle shaking and the reaction was stopped by aspiration of the mixture and washing (three times) with ice-cold UB. The cells were lysed by the addition of scintillation liquid, shaken 3 hours and the radioactivity in the cells was estimated using a microplates scintillation counter (TopCount NXT, Packard).
For `Cc1ncc(-c2ccc3c(c2)N(c2ccc4onc(C)c4c2)C(=O)C3(C)C)cn1` [Example 18, 3,3-Dimethyl-1-(3-methylbenzo[d]isoxazol-5-yl)-6-(2-methylpyrimidin-5-yl)indolin-2-one], the IC50 – broadly, the concentration that gives 50% inhibition – worked out at 0.0509 µM.

`COc1cc(N2C(=O)C(C)(C)c3ccc(-c4cnc(C)nc4)cc32)cnc1C` [Example 3, 1-(5-Methoxy-6-methylpyridin-3-yl)-3,3-dimethyl-6-(2-methylpyrimidin-5-yl)indolin-2-one] displayed an IC50 of 0.242 µM.

Molecule `COc1cc(N2C(=O)C(C)(C)c3ccc(-c4cnc(C)nc4)cc32)nc(OC)n1` [Example 4, 1-(2,6-Dimethoxypyrimidin-4-yl)-3,3-dimethyl-6-(2-methylpyrimidin-5-yl)indolin-2-one] showed an IC50 of 0.11 µM.

In turn, `Cc1ncc(-c2ccc3c(c2)N(c2cnc(OC4COC4)nc2)C(=O)C3(C)C)cn1` [Example 17, 3,3-Dimethyl-6-(2-methylpyrimidin-5-yl)-1-(2-(oxetan-3-yloxy)pyrimidin-5-yl)indolin-2-one] registered an IC50 of 0.823 µM.

The molecule `COc1cccc(N2C(=O)C(C)(C)c3ccc(-c4cnc(C)nc4)cc32)c1` [Example 6, 1-(3-Methoxyphenyl)-3,3-dimethyl-6-(2-methylpyrimidin-5-yl)indolin-2-one] showed an IC50 of 0.289 µM.

The molecule `Cc1ncc(-c2ccc3c(c2)N(c2ccc(O)nn2)C(=O)C3(C)C)cn1` [Example 13, 1-(6-Hydroxypyridazin-3-yl)-3,3-dimethyl-6-(2-methylpyrimidin-5-yl)indolin-2-one] yielded an IC50 of 0.615 µM.

For `COc1cnc(N2C(=O)C(C)(C)c3ccc(-c4cnc(C)nc4)cc32)cn1` [Example 11, 1-(5-Methoxypyrazin-2-yl)-3,3-dimethyl-6-(2-methylpyrimidin-5-yl)indolin-2-one], the IC50 is 0.272 µM.

Take `Cc1ncc(-c2ccc3c(c2)N(c2cncc(OC(C)C)c2)C(=O)C3(C)C)cn1` [Example 7, 1-(5-Isopropoxypyridin-3-yl)-3,3-dimethyl-6-(2-methylpyrimidin-5-yl)indolin-2-one]: the IC50 turned out to be 0.183 µM.

Consider `Cc1ncc(-c2ccc3c(c2)N(c2ccc(OC(F)(F)F)cn2)C(=O)C3(C)C)cn1` [Example 14, 3,3-Dimethyl-6-(2-methylpyrimidin-5-yl)-1-(5-(trifluoromethoxy)pyridin-2-yl)indolin-2-one], for which the IC50 worked out at 0.118 µM.

`COc1cncc(N2C(=O)C3(CCC3)c3ccc(-c4cnc(C)nc4)cc32)c1` [Example 19, 1′-(5-Methoxypyridin-3-yl)-6′-(2-methylpyrimidin-5-yl)spiro[cyclobutane-1,3′-indolin]-2′-one]: half-maximal inhibition (IC50) required 0.785 µM.

As for `Cc1ncc(-c2ccc3c(c2)N(c2cnc4c(c2)OCCN4)C(=O)C3(C)C)cn1` [Example 8, 1-(3,4-Dihydro-2H-pyrido[3,2-b][1,4]oxazin-7-yl)-3,3-dimethyl-6-(2-methylpyrimidin-5-yl)indolin-2-one], the midpoint of inhibition, the IC50, lay at 0.951 µM.

For `CCOc1cncc(N2C(=O)C(C)(C)c3ccc(-c4cnc(C)nc4)cc32)c1` [Example 5, 1-(5-Ethoxypyridin-3-yl)-3,3-dimethyl-6-(2-methylpyrimidin-5-yl)indolin-2-one], half-maximal inhibition (IC50) required 0.0643 µM.

In turn, `COc1cc(N2C(=O)C(C)(C)c3ccc(-c4cnc(C)nc4)cc32)cnc1Cl` [Example 9, 1-(6-Chloro-5-methoxypyridin-3-yl)-3,3-dimethyl-6-(2-methylpyrimidin-5-yl)indolin-2-one] registered a half-inhibitory concentration (IC50) of 0.154 µM.

Regarding `COc1ncc(N2C(=O)C(C)(C)c3ccc(-c4cnc(C)nc4)cc32)cn1` [Example 15, 1-(2-Methoxypyrimidin-5-yl)-3,3-dimethyl-6-(2-methylpyrimidin-5-yl)indolin-2-one], it took 0.843 µM to reach half-maximal inhibition (IC50).

Molecule `COc1ccc(N2C(=O)C3(CCC3)c3ccc(-c4cnc(C)nc4)cc32)nn1` [Example 20, 1′-(6-Methoxypyridazin-3-yl)-6′-(2-methylpyrimidin-5-yl)spiro[cyclobutane-1,3′-indolin]-2′-one] displayed an IC50 of 0.13 µM. Against the preceding molecule, the IC50 is about 6.5-fold lower.

Regarding `COc1cc(N2C(=O)C(C)(C)c3ccc(-c4cnc(C)nc4)cc32)cnc1C1CC1` [Example 10, 1-(6-Cyclopropyl-5-methoxypyridin-3-yl)-3,3-dimethyl-6-(2-methylpyrimidin-5-yl)indolin-2-one], the IC50 worked out at 0.139 µM.

`COc1cncc(N2C(=O)C(C)(C)c3ccc(-c4cnc(C)nc4)cc32)n1` [Example 1, 1-(6-Methoxypyrazin-2-yl)-3,3-dimethyl-6-(2-methylpyrimidin-5-yl)indolin-2-one] registered an IC50 of 0.073 µM.

In the case of `Cc1ncc(-c2ccc3c(c2)N(c2ccc(OCC(F)(F)F)nc2)C(=O)C3(C)C)cn1` [Example 16, 3,3-Dimethyl-6-(2-methylpyrimidin-5-yl)-1-(6-(2,2,2-trifluoroethoxy)pyridin-3-yl)indolin-2-one], the IC50 amounted to 0.811 µM.
